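Tested at 5 concentrations; 48 h exposure; 96-well plates; endpoints linearly interpolated, else capped at highest concentration. TGI marks complete inhibition of growth.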
Experiments:
Assay in all cases: growth of human tumour cells (NCI), 48 h
KM20L2 colon = tested on: KM20L2 colon
HOP-62 NSCLC = tested on: HOP-62 NSCLC
DMS 273 small cell lung = tested on: DMS 273 small cell lung
OVCAR-5 ovarian = tested on: OVCAR-5 ovarian
M14 melanoma = tested on: M14 melanoma
RPMI-8226 leukemia = tested on: RPMI-8226 leukemia
SF-268 CNS = tested on: SF-268 CNS
HT29 colon = tested on: HT29 colon
TK-10 renal = tested on: TK-10 renal
CCRF-CEM leukemia = tested on: CCRF-CEM leukemia
SK-MEL-5 melanoma = tested on: SK-MEL-5 melanoma
KM12 colon = tested on: KM12 colon
SN12C renal = tested on: SN12C renal
NCI-H460 lung = tested on: NCI-H460 lung
IGROV1 ovarian = tested on: IGROV1 ovarian
A549 NSCLC = tested on: A549 NSCLC
HCC-2998 colon = tested on: HCC-2998 colon
LOX IMVI melanoma = tested on: LOX IMVI melanoma
SF-539 CNS = tested on: SF-539 CNS
K-562 leukemia = tested on: K-562 leukemia

Row | Structure (SMILES) | TGI (KM20L2 colon) [µM] | TGI (HOP-62 NSCLC) [µM] | TGI (DMS 273 small cell lung) [µM] | TGI (OVCAR-5 ovarian) [µM] | TGI (M14 melanoma) [µM] | TGI (RPMI-8226 leukemia) [µM] | TGI (SF-268 CNS) [µM] | TGI (HT29 colon) [µM] | TGI (TK-10 renal) [µM] | TGI (CCRF-CEM leukemia) [µM] | TGI (SK-MEL-5 melanoma) [µM] | TGI (KM12 colon) [µM] | TGI (SN12C renal) [µM] | TGI (NCI-H460 lung) [µM] | TGI (IGROV1 ovarian) [µM] | TGI (A549 NSCLC) [µM] | TGI (HCC-2998 colon) [µM] | TGI (LOX IMVI melanoma) [µM] | TGI (SF-539 CNS) [µM] | TGI (K-562 leukemia) [µM]
1 | CCn1cnnc1-c1nsc2ccccc12 | > 100 | > 100 | > 100 | 92.2 | > 100 | > 100 | > 100 | > 100 | > 100 | > 100 | > 100 | > 100 | > 100 | > 100 | > 100 | > 100 | > 100 | > 100 | > 100 | > 100
2 | Cc1ccc2c(=O)c3ccccc3sc2c1 | > 100 | > 100 | > 100 | > 100 | > 100 | > 100 | > 100 | > 100 | > 100 | > 100 | > 100 | > 100 | > 100 | > 100 | > 100 | > 100 | > 100 | > 100 | > 100 | > 100
